Measurements taken from patent US11339170B1, “Spiropyrrolidine derived antiviral agents” (priority 2021, dated 2022).
pEC50, pIC50: −log10 of the molar value. Like-named read-outs stand apart in the source and are kept apart here.

Columns and labels:
SARS-CoV-2 3CL-protease = SARS-CoV-2 3CL-protease (Severe acute respiratory syndrome coronavirus 2 (2019-nCoV) (SARS-CoV-2), UniProt P0DTD1); experiment: SARS-CoV-2 3C-like (3CL) protease fluorescence assay (FRET); assay type: biochemical
[1] = system: 229E human corona virus (hCoV); experiment: 229E live virus assay (CPE, ATPlite readout) in MRC-5 cells; assay type: cell-based, hCoV-229E; conditions: Human coronavirus 229E, MRC5, 144 h, read-out: 229E EC50
[2] = recombinant SARS-CoV-2 3CL-protease 10 nM, 30 min preincubation, duplicate, read-out: FRET IC50

Row | Structure (SMILES) | pIC50 (SARS-CoV-2 3CL-protease; read-out: FRET IC50, recombinant SARS-CoV-2 3CL-protease 10 nM, 30 min preincubation, duplicate) | pIC50 (SARS-CoV-2 3CL-protease; [2]) | pIC50 (SARS-CoV-2 3CL-protease) | pEC50 [1] | pEC50 ([1]; MRC-5 cells, MOI 0.05, 6 days at 34° C., ATPlite, duplicate)
1 | CC(C)C[C@@H](C(=O)N1C[C@]2(C[C@H]1C#N)C(=O)Nc1ccccc12)N(C)C(=O)C(=O)Nc1ccc(F)cc1F [Compound 1] | > 7.00 |  |  |  | 
2 | CC(C)C[C@@H](C(=O)N1C[C@]2(C[C@H]1C#N)C(=O)Nc1ccccc12)N(C)C(=O)C(=O)Nc1ccc(F)cc1F [Compound 2] |  | > 7.00 |  |  | 
3 | CC(C)C[C@@H](C(=O)N1C[C@]2(C[C@H]1C#N)C(=O)Nc1ccccc12)N(C)C(=O)C(=O)Nc1ccccc1 [Compound 3] |  |  | > 7.00 | > 7.00 | 
4 | CC(C)C[C@@H](C(=O)N1C[C@]2(C[C@H]1C#N)C(=O)Nc1ccccc12)N(C)C(=O)C(=O)Nc1ccc(F)cc1 [Compound 4] |  |  | > 7.00 | > 7.00 | 
5 | CC(C)C[C@@H](C(=O)N1C[C@]2(C[C@H]1C#N)C(=O)Nc1ccccc12)N(C)C(=O)C(=O)Nc1ccc(F)c(F)c1 [Compound 5] |  |  | 6.00 to 7.00 | > 7.00 | 
6 | CC(C)C[C@@H](C(=O)N1C[C@]2(C[C@H]1C#N)C(=O)Nc1ccccc12)N(C)C(=O)C(=O)Nc1cc(F)c(F)c(F)c1 [Compound 6] |  |  | 6.00 to 7.00 | > 7.00 | 
7 | CC(C)C[C@@H](C(=O)N1C[C@]2(C[C@H]1C#N)C(=O)Nc1ccccc12)N(C)C(=O)C(=O)Nc1ccc2ccccc2c1 [Compound 7] |  |  | > 7.00 | > 7.00 | 
8 | CC(C)C[C@@H](C(=O)N1C[C@]2(C[C@H]1C#N)C(=O)Nc1ccccc12)N(C)C(=O)C(=O)Nc1cccc2ccccc12 [Compound 8] |  |  | > 7.00 | > 7.00 | 
9 | CC(C)C[C@@H](C(=O)N1C[C@]2(C[C@H]1C#N)C(=O)Nc1ccccc12)N(C)C(=O)C(=O)N(C)c1ccccc1 [Compound 9] |  |  | > 7.00 | > 7.00 | 
10 | CC(C)C[C@@H](C(=O)N1C[C@]2(C[C@H]1C#N)C(=O)Nc1ccccc12)N(C)C(=O)C(=O)N(C)c1ccc(F)cc1 [Compound 10] |  |  | > 7.00 | > 7.00 | 
11 | CC(C)C[C@@H](C(=O)N1C[C@]2(C[C@H]1C#N)C(=O)Nc1ccccc12)N(C)C(=O)C(=O)Nc1ccc2cccnc2c1 [Compound 11] |  |  | > 7.00 | > 7.00 | 
12 | CC(C)C[C@@H](C(=O)N1C[C@]2(C[C@H]1C#N)C(=O)Nc1ccccc12)N(C)C(=O)C(=O)Nc1ccc2cnccc2c1 [Compound 12] |  |  | > 7.00 | > 7.00 | 
13 | CC(C)C[C@@H](C(=O)N1C[C@]2(C[C@H]1C#N)C(=O)Nc1ccccc12)N(C)C(=O)C(=O)Nc1ccc2ccccc2n1 [Compound 13] |  |  | > 7.00 | > 7.00 | 
14 | CC(C)C[C@@H](C(=O)N1C[C@]2(C[C@H]1C#N)C(=O)Nc1ccccc12)N(C)C(=O)C(=O)Nc1ccc2ncccc2c1 [Compound 14] |  |  | > 7.00 | > 7.00 | 
15 | CC(C)C[C@@H](C(=O)N1C[C@]2(C[C@H]1C#N)C(=O)Nc1ccccc12)N(C)C(=O)C(=O)Nc1cnc2ccccc2c1 [Compound 15] |  |  | > 7.00 | > 7.00 | 
16 | CC(C)C[C@@H](C(=O)N1C[C@]2(C[C@H]1C#N)C(=O)Nc1ccccc12)N(C)C(=O)C(=O)Nc1nn(C)c2ccccc12 [Compound 16] |  |  | > 7.00 | > 7.00 | 
17 | CC(C)C[C@@H](C(=O)N1C[C@]2(C[C@H]1C#N)C(=O)Nc1ccccc12)N(C)C(=O)C(=O)Nc1nc2ccccc2s1 [Compound 17] |  |  | > 7.00 | > 7.00 | 
18 | CC(C)C[C@@H](C(=O)N1C[C@]2(C[C@H]1C#N)C(=O)Nc1ccccc12)N(C)C(=O)C(=O)Nc1nc2ccccc2n1C [Compound 18] |  |  | > 7.00 | > 7.00 | 
19 | CC(C)C[C@@H](C(=O)N1C[C@]2(C[C@H]1C#N)C(=O)Nc1ccccc12)N(C)C(=O)C(=O)Nc1n[nH]c2ccccc12 [Compound 19] |  | > 7.00 |  |  | > 7.00
20 | CN(C(=O)C(=O)Nc1ccc(F)cc1F)[C@@H](CC(C)(C)C)C(=O)N1C[C@]2(C[C@H]1C#N)C(=O)Nc1ccccc12 [Compound 20] |  |  | > 7.00 | > 7.00 | 
21 | CN(C(=O)C(=O)Nc1ccc(F)cc1)[C@@H](CC(C)(C)C)C(=O)N1C[C@]2(C[C@H]1C#N)C(=O)Nc1ccccc12 [Compound 21] |  |  | > 7.00 | > 7.00 | 
22 | [2H]C([2H])([2H])N(C(=O)C(=O)Nc1ccc(F)cc1)[C@@H](CC(C)(C)C)C(=O)N1C[C@]2(C[C@H]1C#N)C(=O)Nc1ccccc12 [Compound 22] |  |  | > 7.00 | > 7.00 | 
23 | [2H]C([2H])([2H])N(C(=O)C(=O)Nc1ccc(F)cc1F)[C@@H](CC(C)(C)C)C(=O)N1C[C@]2(C[C@H]1C#N)C(=O)Nc1ccccc12 [Compound 23] |  |  | > 7.00 | > 7.00 | 
24 | [2H]C([2H])([2H])N(C(=O)C(=O)Nc1ccc(F)c(F)c1)[C@@H](CC(C)(C)C)C(=O)N1C[C@]2(C[C@H]1C#N)C(=O)Nc1ccccc12 [Compound 24] |  |  | > 7.00 | > 7.00 | 

Row | Structure (SMILES) | pIC50 (SARS-CoV-2 3CL-protease; read-out: FRET IC50, recombinant SARS-CoV-2 3CL-protease 10 nM, 30 min preincubation, duplicate) | pIC50 (SARS-CoV-2 3CL-protease; [2]) | pIC50 (SARS-CoV-2 3CL-protease) | pEC50 [1] | pEC50 ([1]; MRC-5 cells, MOI 0.05, 6 days at 34° C., ATPlite, duplicate)
25 | [2H]C([2H])([2H])N(C(=O)C(=O)NC1CCC1)[C@@H](CC(C)(C)C)C(=O)N1C[C@]2(C[C@H]1C#N)C(=O)Nc1ccccc12 [Compound 25] |  |  | > 7.00 | > 7.00 | 
26 | [2H]C([2H])([2H])N(C(=O)C(=O)NC1CCCCC1)[C@@H](CC(C)(C)C)C(=O)N1C[C@]2(C[C@H]1C#N)C(=O)Nc1ccccc12 [Compound 26] |  |  | > 7.00 | > 7.00 | 
27 | [2H]C([2H])([2H])N(C(=O)C(=O)Nc1ccccn1)[C@@H](CC(C)(C)C)C(=O)N1C[C@]2(C[C@H]1C#N)C(=O)Nc1ccccc12 [Compound 27] |  |  | 6.00 to 7.00 | > 7.00 | 
28 | [2H]C([2H])([2H])N(C(=O)C(=O)N1CCCCC1)[C@@H](CC(C)(C)C)C(=O)N1C[C@]2(C[C@H]1C#N)C(=O)Nc1ccccc12 [Compound 29] |  |  | 6.00 to 7.00 | > 7.00 | 
29 | [2H]C([2H])([2H])N(C(=O)C(=O)Nc1ccc(F)cc1)[C@@H](Cc1ccccc1)C(=O)N1C[C@]2(C[C@H]1C#N)C(=O)Nc1ccccc12 [Compound 30] |  |  | > 7.00 | > 7.00 | 
30 | [2H]C([2H])([2H])N(C(=O)C(=O)NC1CCCC1)[C@@H](CC(C)(C)C)C(=O)N1C[C@]2(C[C@H]1C#N)C(=O)Nc1ccccc12 [Compound 31] |  |  | > 7.00 | > 7.00 | 
31 | [2H]C([2H])([2H])N(C(=O)C(=O)Nc1ccccc1)[C@@H](Cc1ccccc1)C(=O)N1C[C@]2(C[C@H]1C#N)C(=O)Nc1ccccc12 [Compound 32] |  |  | > 7.00 | > 7.00 | 
32 | [2H]C([2H])([2H])N(C(=O)C(=O)Nc1ccccn1)[C@@H](Cc1ccccc1)C(=O)N1C[C@]2(C[C@H]1C#N)C(=O)Nc1ccccc12 [Compound 33] |  |  | > 7.00 | > 7.00 | 
33 | [2H]C([2H])([2H])N(C(=O)C(=O)NC1CC1)[C@@H](Cc1ccccc1)C(=O)N1C[C@]2(C[C@H]1C#N)C(=O)Nc1ccccc12 [Compound 34] |  |  | > 7.00 | > 7.00 | 
34 | [2H]C([2H])([2H])N(C(=O)C(=O)Nc1c(C)cccc1C)[C@@H](CC(C)(C)C)C(=O)N1C[C@]2(C[C@H]1C#N)C(=O)Nc1ccccc12 [Compound 35] |  |  | > 7.00 | > 7.00 | 
35 | [2H]C([2H])([2H])N(C(=O)C(=O)N(C)c1ccccc1)[C@@H](CC(C)(C)C)C(=O)N1C[C@]2(C[C@H]1C#N)C(=O)Nc1ccccc12 [Compound 36] |  |  | < 6.00 | 6.00 to 7.00 | 
36 | [2H]C([2H])([2H])N(C(=O)C(=O)Nc1ccc2ncccc2c1)[C@@H](CC(C)(C)C)C(=O)N1C[C@]2(C[C@H]1C#N)C(=O)Nc1ccccc12 [Compound 37] |  |  | > 7.00 | > 7.00 | 
37 | [2H]C([2H])([2H])N(C(=O)C(=O)Nc1ccc(F)c(F)c1)[C@@H](CC1CC1)C(=O)N1C[C@]2(C[C@H]1C#N)C(=O)Nc1ccccc12 [Compound 38] |  |  | > 7.00 | > 7.00 | 
38 | [2H]C([2H])([2H])N(C(=O)C(=O)Nc1ccc(F)cc1)[C@@H](CC1CC1)C(=O)N1C[C@]2(C[C@H]1C#N)C(=O)Nc1ccccc12 [Compound 39] |  |  | > 7.00 | > 7.00 | 
39 | CC(C)C[C@@H](C(=O)N1C[C@]2(C[C@H]1C#N)C(=O)Nc1ccccc12)N(C)C(=O)C(=O)NC1CC1 [Compound 40] |  |  | > 7.00 | > 7.00 | 
40 | CC(C)C[C@@H](C(=O)N1C[C@]2(C[C@H]1C#N)C(=O)Nc1ccccc12)N(C)C(=O)C(=O)c1ccc(F)cc1 [Compound 41] |  |  | > 7.00 | > 7.00 | 
41 | CC(C)C[C@@H](C(=O)N1C[C@]2(C[C@H]1C#N)C(=O)Nc1ccccc12)N(C)C(=O)C(=O)N(C)C1CC1 [Compound 42] |  |  | > 7.00 | > 7.00 | 
42 | CC(C)C[C@@H](C(=O)N1C[C@]2(C[C@H]1C#N)C(=O)Nc1ccccc12)N(C)C(=O)C(=O)C1CC1 [Compound 43] |  |  | > 7.00 | > 7.00 | 
43 | CC(C)C[C@@H](C(=O)N1C[C@]2(C[C@H]1C#N)C(=O)Nc1ccccc12)N(C)C(=O)C(=O)NC(C)(C)C [Compound 44] |  |  | > 7.00 | > 7.00 | 
44 | CN(C(=O)C(=O)Nc1ccc(F)c(F)c1)[C@@H](Cc1ccccc1)C(=O)N1C[C@]2(C[C@H]1C#N)C(=O)Nc1ccccc12 [Compound 45] |  |  | > 7.00 | > 7.00 | 
45 | [2H]C([2H])([2H])N(C(=O)C(=O)Nc1ccc(F)c(F)c1)[C@@H](Cc1ccc(F)cc1)C(=O)N1C[C@]2(C[C@H]1C#N)C(=O)Nc1ccccc12 [Compound 46] |  |  | > 7.00 | > 7.00 | 
46 | [2H]C([2H])([2H])N(C(=O)C(=O)Nc1ccc(F)c(F)c1)[C@@H](CCCC)C(=O)N1C[C@]2(C[C@H]1C#N)C(=O)Nc1ccccc12 [Compound 47] |  |  | > 7.00 | > 7.00 | 
47 | [2H]C([2H])([2H])N(C(=O)C(=O)C(C)(C)C)[C@@H](CCCC)C(=O)N1C[C@]2(C[C@H]1C#N)C(=O)Nc1ccccc12 [Compound 48] |  |  | > 7.00 | > 7.00 | 
48 | CC(C)(C)C[C@H](NC(=O)C(=O)NC(C)(C)C)C(=O)N1C[C@]2(C[C@H]1C#N)C(=O)Nc1ccccc12 [Compound 69] |  |  | > 7.00 |  | 
